This is an account of results in US9796705B2, “Fused tricyclic compounds and methods of use thereof for the treatment of viral diseases” (Merck Sharp & Dohme Corp., priority 2009, dated 2017).

Where only a bound is given, the exact number is not on record here.

For this assay, the system named is HCV replicon. Kind of assay: Cell-Based HCV Replicon Assay. As to conditions: Hepatitis C virus, 72 h; replicon cells, replicon RNA level by real time PCR (Taqman) on day 3; EC90 = concentration to achieve ΔCT=3.2 over baseline; read-out: Biological activity (EC90, HCV replicon assay). How it is done: To measure cell-based anti-HCV activity of selected compounds of the present invention, replicon cells were seeded at 5000 cells/well in 96-well collagen I-coated Nunc plates in the presence of the test compound. Various concentrations of test compound, typically in 10 serial 2-fold dilutions, were added to the assay mixture, with the starting concentration ranging from 250 µM to 1 μM. The final concentration of DMSO was 0.5%, fetal bovine serum was 5%, in the assay media. Cells were harvested on day 3 by the addition of 1× cell lysis buffer (Ambion cat #8721). The replicon RNA level was measured using real time PCR (Taqman assay). The amplicon was located in 5B. The PCR primers were: 5B.2F, ATGGACAGGCGCCCTGA (SEQ. ID NO. 1); 5B.2R, […] (SEQ. ID NO. 2); the probe sequence was FAM-labeled CACGCCATGCGCTGCGG (SEQ. ID NO. 3). GAPDH RNA was used as endogenous control and was amplified in the same reaction as NS5B (multiplex PCR) using primers and VIC-labeled probe recommended by the manufacturer (PE Applied Biosystem). The real-time RT-PCR reactions were run on ABI PRISM 7900HT Sequence Detection System using the following program: 48° C. for 30 min, 95° C. for 10 min, 40 cycles of 95° C. for 15 sec, 60° C. for 1 min. The ΔCT values (CT-CT5BCTGAPDH) were plotted against the concentration of test compound and fitted to the sigmoid dose-response model using XLfit4 (MDL). EC50 was defined as the concentration of inhibitor necessary to achieve ΔCT=1 over the projected baseline; EC90 the concentration necessary to achieve ΔCT=3.2 over the baseline. Alternatively, to quantitate the absolute amount of replicon RNA, a standard curve was established by including serially diluted T7 transcripts of replicon RNA in the Taqman assay. All Taqman reagents were from PE Applied Biosystems. Such an assay procedure was described in detail in e.g. Malcolm et at, Antimicrobial Agents and Chemotherapy 50: 1013-1020 (2006).
HCV replicon assay data was calculated for selected compounds of the present invention using this method and is provided in the table below.
Turning to `COC(=O)N[C@H](C(=O)N1CCC[C@H]1c1ncc(-c2ccc(-c3ccc4c(ccc5nc([C@@H]6CCCN6C(=O)[C@@H](NC(=O)OC)C(C)C)[nH]c54)c3)s2)[nH]1)C(C)C` [Compound 1], the EC90 is below 1 nM. The figure for `COC(=O)N[C@H](C(=O)N1CCC[C@H]1c1ncc(-c2cc(C)c(-c3ccc4c(ccc5nc([C@@H]6CCCN6C(=O)[C@@H](NC(=O)OC)C(C)C)[nH]c54)c3)s2)[nH]1)C(C)C` [Compound 2] is below 1 nM; for `COC(=O)N[C@H](C(=O)N1CCC[C@H]1c1nc2ccc(-c3ccc4c(ccc5nc([C@@H]6CCCN6C(=O)[C@@H](NC(=O)OC)C(C)C)[nH]c54)c3)cc2[nH]1)C(C)C` [Compound 3] it is below 1 nM; for `CC(=O)N1CCC[C@H]1c1nc2ccc(-c3ccc4c(ccc5nc([C@@H]6CCCN6C(=O)OC(C)(C)C)[nH]c54)c3)cc2[nH]1` [Compound 4] it is at least 1000 nM. The figure for `COC(=O)N[C@H](C(=O)N1CCC[C@H]1c1nc2ccc3cc(-c4ccc5nc([C@@H]6CCCN6C(C)=O)[nH]c5c4)ccc3c2[nH]1)C(C)C` [Compound 5] is below 1 nM; for `CC(=O)N1CCC[C@H]1c1nc2ccc(-c3ccc4c(ccc5nc([C@@H]6CCCN6)[nH]c54)c3)cc2[nH]1` [Compound 6] it is 1 to 999 nM.

With `COC(=O)N[C@H](C(=O)N1CCC[C@H]1c1nc2cc(F)c(-c3ccc4c(ccc5nc([C@@H]6CCCN6C(=O)[C@@H](NC(=O)OC)C(C)C)[nH]c54)c3)cc2[nH]1)C(C)C` [Compound 7], the EC90 is below 1 nM. With `CC(C)(C)OC(=O)N1CCCC[C@H]1c1nc2ccc(-c3ccc4c(ccc5nc([C@@H]6CCCN6C(=O)OC(C)(C)C)[nH]c54)c3)cc2[nH]1` [Compound 8], the EC90 was 1 to 999 nM. In the case of `CC(C)(C)OC(=O)N1CC(F)(F)C[C@H]1c1nc2ccc(-c3ccc4c(ccc5nc([C@@H]6CCCN6C(=O)OC(C)(C)C)[nH]c54)c3)cc2[nH]1` [Compound 9] it was 1 to 999 nM.

For the compound `COC(=O)N[C@H](C(=O)N1CCCC[C@H]1c1nc2ccc(-c3ccc4c(ccc5nc([C@@H]6CCCN6)[nH]c54)c3)cc2[nH]1)C(C)C` [Compound 10], the EC90 lay within 1 to 999 nM. The figure for `COC(=O)N[C@H](C(=O)N1CCCC[C@H]1c1nc2ccc(-c3ccc4c(ccc5nc([C@@H]6CCCN6C(=O)[C@@H](NC(=O)OC)C(C)C)[nH]c54)c3)cc2[nH]1)C(C)C` [Compound 11] is below 1 nM.

For `COC(=O)N[C@H](C(=O)N1CC(F)(F)C[C@H]1c1nc2ccc(-c3ccc4c(ccc5nc([C@@H]6CCCN6C(=O)[C@@H](NC(=O)OC)C(C)C)[nH]c54)c3)cc2[nH]1)C(C)C` [Compound 12], the EC90 is below 1 nM.

On to `CC(C)[C@H](NC(=O)OC(C)(C)C)C(=O)N1CC(F)(F)C[C@H]1c1nc2ccc(-c3ccc4c(ccc5nc([C@@H]6CCCN6C(=O)[C@@H](NC(=O)OC(C)(C)C)C(C)C)[nH]c54)c3)cc2[nH]1` [Compound 13], for which the EC90 was below 1 nM. Regarding `CC(C)[C@H](N)C(=O)N1CC(F)(F)C[C@H]1c1nc2ccc(-c3ccc4c(ccc5nc([C@@H]6CCCN6C(=O)[C@@H](N)C(C)C)[nH]c54)c3)cc2[nH]1` [Compound 14], the EC90 was 1 to 999 nM. For the compound `Cc1cc(-c2cnc([C@@H]3CCCN3C(=O)OC(C)(C)C)[nH]2)sc1-c1ccc2c(ccc3nc([C@@H]4CCCN4C(=O)OC(C)(C)C)[nH]c32)c1` [Compound 15], the EC90 fell in the range of 1 to 999 nM. For the compound `COC(=O)N[C@H](C(=O)N1CCC[C@H]1c1nc2ccc(-c3sc4ccc(-c5ccc6c(ccc7nc([C@@H]8CCCN8C(=O)[C@@H](NC(=O)OC)C(C)C)[nH]c76)c5)cc4c3C)cc2[nH]1)C(C)C` [Compound 16], the EC90 is below 1 nM. Consider `COC(=O)N[C@H](C(=O)N1CCC[C@H]1c1nc2ccc(-c3ccc4c(ccc5nc([C@@H]6CCCN6)[nH]c54)c3)cc2[nH]1)C(C)C` [Compound 17], for which the EC90 lay within 1 to 999 nM.
